Results published in ChEMBL document CHEMBL1955778, “Design and synthesis of novel 7-aminoquinazoline derivatives: antitumor and anticonvulsant activities” (Bioorg Med Chem Lett, 2012).

Assays:
Type in all cases: functional
Mus musculus [1] = experiment: Anticonvulsant activity in mouse assessed as protection against strychnine-induced seizure at 1 mmol/kg, ip administered 30 min prior to strychnine-challenge measured after 60 mins relative to control
Mus musculus [2] = experiment: Anticonvulsant activity in mouse assessed as protection against maximal electroshock-induced seizure at 1 mmol/kg, ip administered 30 min prior to maximal electroshock-challenge measured after 60 mins relative to control
Mus musculus [3] = experiment: Anticonvulsant activity in mouse assessed as protection against pentylenetetrazol-induced seizure at 1 mmol/kg, ip administered 30 min prior to pentylenetetrazol-challenge measured after 60 mins relative to control
Mus musculus [4] = experiment: Anticonvulsant activity in mouse assessed as protection against picrotoxin-induced seizure at 1 mmol/kg, ip administered 30 min prior to picrotoxin-challenge measured after 60 mins relative to control

Question: `Cc1ccc(S(=O)(=O)Nc2ccc3c(=O)n(-c4ccccc4C)c(C)nc3c2)cc1` was tested. Which Activity (Mus musculus [1]) did it give?
Answer: 0%

Question: What about the Activity (Mus musculus [2]) of the same molecule?
Answer: 0%

Question: What about the Activity (Mus musculus [3]) of the same molecule?
Answer: 66%

Question: With `Cc1ccccc1-n1c(C)nc2cc(-n3c(C)nc4ccccc4c3=O)ccc2c1=O` as the molecule, how does the Activity (Mus musculus [1]) read?
Answer: 0%

Question: What about the Activity (Mus musculus [2]) of the same molecule?
Answer: 100%

Question: And the Activity (Mus musculus [3])?
Answer: 0%

Question: What about the Activity (Mus musculus [4]) of the same molecule?
Answer: 0%

Question: How did the Activity (Mus musculus [1]) turn out when `Cc1ccccc1-n1c(C)nc2cc(/N=C/c3ccccc3)ccc2c1=O` was run?
Answer: 0%

Question: What about the Activity (Mus musculus [2]) of the same molecule?
Answer: 50%

Question: And the Activity (Mus musculus [3])?
Answer: 0%
